Laboratory results as given in publication PMC5362750, “Discovery of Potent, Selective, and Orally Bioavailable Small-Molecule Modulators of the Mediator Complex-Associated Kinases CDK8 and CDK19” (Journal of Medicinal Chemistry, 2016).
≈ marks a conversion by molar mass, not a printed value. Where two headings read alike, the source gives them in different places.

Legend:
[1] = human
[2] = Caco-2 Papp determination; details: human, Caco-2, pH 7.4
In vivo mouse PK = details: female, NMRI, plasma
[3] = test system: WNT-dependent signaling, 7dF3 cells (HEK293); experiment: 7dF3 luciferase reporter assay; type: cell-based, human
[4] = Thermodynamic solubility determination; type: physicochemical
[5] = Mouse Clint determination; type: in vitro ADME
Protocol: (§1) Mouse, Rat, and Human Clint Determination
(§2) Microsomes (final concentration 0.5 mg/mL), 50 mM phosphate buffer pH 7.4, and compound (final concentration 1 μM) were added to the assay plate and allowed to preincubate for 5 min at 37 °C. The reaction was initiated by the addition of NADPH (final concentration 1.5 mM), and the plate was shaken at 800 rpm at 37 °C. After 0, 5, 10, 20, and 30 min aliquots were taken and the reaction was stopped using cold acetonitrile. The samples were centrifuged at 4000 rpm for 30 min at 4 °C and analyzed by LC–MS/MS. Four test compounds were pooled for analysis. The in vitro intrinsic clearance was calculated from the rate of compound disappearance.

[6] = Human Clint determination; type: in vitro ADME; details: pH 7.4; human microsomes
Protocol: as §1, §2

[7] = Kinetic solubility determination; details: phosphate buffer, pH 7.4, Solubility Kinetic, free base
Rat Clint determination = type: in vitro ADME; details: pH 7.4; rat microsomes

Question: For `Cn1cc(-c2ccc(-c3cncc(Cl)c3N3CCC4(CCNC4=O)CC3)cc2)cn1` [Compound 6], which clearance [1] is on record?
Answer: Its clearance is 14.7 mL/min/kg.

Question: What about the “clearance prediction, iviv from hepatocytes” value (human) of the same molecule?
Answer: The value was 8.83 mL/min/kg.

Question: What about the “clearance prediction, simple allometry” value (human) of the same molecule?
Answer: Its value is 24.2 mL/min/kg.

Question: What about the F (human prediction) of the same molecule?
Answer: Its F is “∼70%”.

Question: And the Vd (human prediction)?
Answer: Its Vd is “∼0.85 L/kg”.

Question: What about the t1/2 (human prediction) of the same molecule?
Answer: Its t1/2 is “∼0.70 h”.

Question: And the Cl (human prediction, mean of all methods)?
Answer: Its Cl is “∼0.88 L/h/kg”.

Question: What about the Papp A→B at 2 h, 1 μM [2] of the same molecule?
Answer: Its Papp A→B at 2 h, 1 μM is 23.7 ×10⁻⁶ cm/s.

Question: For `O=C1NCCC12CCN(c1c(Cl)cncc1-c1ccc3c(c1)CS(=O)(=O)N3)CC2` [Compound 22], which Vd (In vivo mouse PK; iv, 0.2 mg/kg) is on record?
Answer: The Vd was 1.19 L/kg.

Question: And the clearance (In vivo mouse PK; iv, 0.2 mg/kg, Cl, 0.2 mg/kg iv)?
Answer: The clearance was 84 mL/min/kg.

Question: And the bioavailability (In vivo mouse PK; po, 0.5 mg/kg)?
Answer: Its bioavailability is 11%.

Question: And the “drop in cell-based potency” value ([3]; 7dF3, compared to 6)?
Answer: Its value is 23 fold.

Question: And the Papp A→B at 2 h, 1 μM [2]?
Answer: The Papp A→B at 2 h, 1 μM was 4.9 ×10⁻⁶ cm/s.

Question: And the “improvement of thermodynamic aqueous solubility” value ([4]; compared to 6)?
Answer: Its value is 120 fold.

Question: What about the solubility at 24 h ([4]; phosphate buffer, pH 7.4, TFA salt, pH 7.4, 37 °C, read-out: Solubility Therm.) of the same molecule?
Answer: Its solubility at 24 h is 759 µg/mL.

Question: Which “improvement in potency in the 7dF3 assay” value ([3]; compared to 23) does the source give for `CC1=NNC(=O)C12CCN(c1c(Cl)cncc1-c1ccc3c(c1)CS(=O)(=O)N3C)CC2` [Compound 49] here?
Answer: Its value is 13 fold.

Question: And the Papp A→B at 2 h, 1 μM [2]?
Answer: Its Papp A→B at 2 h, 1 μM is 40 ×10⁻⁶ cm/s.

Question: And the efflux ratio at 2 h, 1 μM [2]?
Answer: The efflux ratio at 2 h, 1 μM was 4.9.

Question: Which results are given for `Nc1ncc(-c2ccc3c(N)n[nH]c3c2)c(N2CCC3(CCNC3=O)CC2)c1Cl` [Compound 87]?
Answer: more stable in mouse Clint experiments ([5]; compared to 25): at least 5 fold; Papp A→B at 2 h, 1 μM [2]: 1.3 ×10⁻⁶ cm/s

Question: Which microsomal CLint at 1 μM [6] does the source give for `CC(C)n1ncc2ccc(-c3cnc(N)c(Cl)c3N3CCC4(CCNC4=O)CC3)cc21` [Compound 111] here?
Answer: The microsomal CLint at 1 μM was 202 µL/min/mg.

Question: What about the microsomal CLint at 1 μM ([5]; pH 7.4, mouse microsomes) of the same molecule?
Answer: The microsomal CLint at 1 μM was 202 µL/min/mg.

Question: And the solubility kinetic at 120 min [7]?
Answer: Its solubility kinetic at 120 min is 126 µM (≈ 55.3 µg/mL).

Question: And the microsomal CLint at 1 μM (Rat Clint determination)?
Answer: The microsomal CLint at 1 μM was 139 µL/min/mg.
